Source: the supplement of paper PMC11061612

Columns and labels:
[1] = test system: PFSK-1 (Other Solid Carcinomas); experiment: Bliss excess, mean over the matrix (fraction); higher = more synergy
Summary of the method: (§1)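 After 24 hours at 37°C and 5% CO2 in 1536-well plates, cells in DMEM/F12 or RPMI plus 10% FBS received two-drug dose matrices for 72 hours. Viability came from CellTiter-Glo 2.0 luminescence and was scaled as inhibition, anchored at 0 by vehicle wells and at 1 by blank wells. Combination Emax is taken as the second-highest inhibition in the matrix, and Bliss excess as the observed combination effect less EA + EB − EA·EB, with EA and EB the single-agent effects.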

[2] = test system: VMRC-LCD (Lung Adenocarcinoma); experiment: as above
Summary of the method: as §1

[3] = test system: EMC-BAC-2 (Non-Small Cell Lung Carcinoma); experiment: as above
Summary of the method: as §1

A704 (Kidney Carcinoma) = experiment: as above
Summary of the method: as §1

GOTO (Neuroblastoma) [4] = experiment: as above
Summary of the method: as §1

NB7 (Neuroblastoma) [5] = experiment: as above
Summary of the method: as §1

[6] = test system: KYSE-50 (Esophageal Squamous Cell Carcinoma); experiment: as above
Summary of the method: as §1

[7] = test system: NCI-H2405 (Lung Adenocarcinoma); experiment: combination Emax (second highest fraction inhibited in the dose matrix, 72 h); higher = more inhibition; extreme values may be limits of the assay
Summary of the method: as §1

[8] = test system: VMRC-LCD (Lung Adenocarcinoma); experiment: as above
Summary of the method: as §1

[9] = test system: MFE-319 (Endometrial Carcinoma); experiment: as above
Summary of the method: as §1

IMR-5 (Neuroblastoma) = experiment: as above
Summary of the method: as §1

[10] = test system: TGBC11TKB (Gastric Carcinoma); experiment: as above
Summary of the method: as §1

EW-13 (Ewing's Sarcoma) = experiment: as above
Summary of the method: as §1

[11] = test system: DG-75 (Burkitt's Lymphoma); experiment: as above
Summary of the method: as §1

GOTO (Neuroblastoma) [12] = experiment: as above
Summary of the method: as §1

[13] = test system: HuP-T3 (Pancreatic Carcinoma); experiment: as above
Summary of the method: as §1

NB7 (Neuroblastoma) [14] = experiment: as above
Summary of the method: as §1

[15] = test system: OCUM-1 (Gastric Carcinoma); experiment: as above
Summary of the method: as §1

[16] = test system: KYSE-50 (Esophageal Squamous Cell Carcinoma); experiment: as above
Summary of the method: as §1

[17] = test system: NCI-H513 (Other Solid Carcinomas); experiment: as above
Summary of the method: as §1
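For Bliss excess, mean over the matrix in this document: after 72 h of two-drug dosing.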

Row | Structure (SMILES) | Bliss excess [1] | Bliss excess [2] | Bliss excess [3] | Bliss excess (A704 (Kidney Carcinoma)) | Bliss excess (GOTO (Neuroblastoma) [4]) | Bliss excess (NB7 (Neuroblastoma) [5]) | Bliss excess [6] | combination Emax [7] | combination Emax [8] | combination Emax [9] | combination Emax (IMR-5 (Neuroblastoma)) | combination Emax [10] | combination Emax (EW-13 (Ewing's Sarcoma)) | combination Emax [11] | combination Emax (GOTO (Neuroblastoma) [12]) | combination Emax [13] | combination Emax (NB7 (Neuroblastoma) [14]) | combination Emax [15] | combination Emax [16] | combination Emax [17]
1 | Cc1nc(Nc2ncc(C(=O)Nc3c(C)cccc3Cl)s2)cc(N2CCN(CCO)CC2)n1 [Dasatinib] + CC(=O)Nc1cccc(-n2c(=O)n(C3CC3)c(=O)c3c(Nc4ccc(I)cc4F)n(C)c(=O)c(C)c32)c1 [Trametinib] (first compound max 2 µM, 7x7, partner max 1 µM) | -0.095 | -0.0596 | -0.0795 | 0.0541 | -0.0631 | 0.0262 | 0.043 | 0.712 | 0.163 | 0.368 | 0.19 | 0.492 | 0 | 0.316 | 0.398 | 0.868 | 0.65 | 0.988 | 0.858 | 0.531
2 | Cn1cnc2c(F)c(Nc3ccc(Br)cc3Cl)c(C(=O)NOCCO)cc21 [Selumetinib] + CC(C)n1c(=O)n(C)c2cnc3cc(F)c(-c4ccc(OCCCN5CCCCC5)nc4)cc3c21 [AZD1390] (first compound max 10 µM, 7x7, partner max 0.3 µM) | -0.0492 | -0.0191 | 0.0079 | -0.0225 | 0.0225 | -0.0326 | -0.0046 | 0.364 | 0.15 | 0.154 | 0.173 | 0.507 | 0.0488 | 0.277 | 0.283 | 0.368 | 0.0793 | 0.951 | 0.21 | 0.22
3 | COc1nnc2ccc(N3CCC(c4ccc(OCCN5CCN(C)C(=O)[C@H]5C)cc4)CC3)nn12 [AZD5153] + Cn1cnc2c(F)c(Nc3ccc(Br)cc3Cl)c(C(=O)NOCCO)cc21 [Selumetinib] (first compound max 1 µM, 7x7, partner max 10 µM) | 0.0031 | -0.0401 | -0.0101 | -0.0077 | -0.0522 | -0.0011 | 0.0571 | 0.521 | 0.575 | 0.579 | 0.906 | 0.683 | 0.315 | 0.862 | 0.822 | 0.692 | 0.45 | 0.909 | 0.697 | 0.499
4 | CC(=O)Nc1cccc(-n2c(=O)n(C3CC3)c(=O)c3c(Nc4ccc(I)cc4F)n(C)c(=O)c(C)c32)c1 [Trametinib] + Cc1nc(-c2cn3c(n2)-c2ccc(-c4cnn(C(C)(C)C(N)=O)c4)cc2OCC3)n(C(C)C)n1 [Taselisib] (first compound max 1 µM, 7x7, partner max 10 µM) | -0.0681 | -0.0267 | 0.0528 | -0.0243 | 0.0482 | -0.0716 | 0.108 | 0.665 | 0.212 | 0.799 | 0.368 | 0.86 | 0.262 | 0.307 | 0.701 | 0.741 | 0.577 | 1 | 0.757 | 0.757
5 | Cc1c2c(nn1C)CSCc1cc(n(C)n1)CSc1cc(c3ccccc3c1)OCCCc1c(C(=O)O)n(C)c3c-2c(Cl)ccc13 [AZD5991] + Cc1cc2ncnn2cc1Nc1ncc2c(n1)n(C1CCOCC1)c(=O)n2C [AZD7648] (first compound max 1 µM, 7x7, partner max 10 µM) | -0.0199 | -0.0302 | -0.0141 | -0.0914 | -0.02 | -0.0079 | -0.0461 | 0.204 | 0.215 | 0.471 | 1 | 0.359 | 0.403 | 0.362 | 0.72 | 0.228 | 0.546 | 0.215 | 0.284 | 0.324
6 | Cn1cnc2c(F)c(Nc3ccc(Br)cc3Cl)c(C(=O)NOCCO)cc21 [Selumetinib] + CCN(CCO)CCCOc1ccc2c(Nc3cc(CC(=O)Nc4cccc(F)c4)[nH]n3)ncnc2c1 [AZD2811] (first compound max 10 µM, 7x7, partner max 1 µM) | -0.0438 | -0.0162 | 0.0094 | -0.058 | -0.0175 | 0.0229 | 0.005 | 0.408 | 0.585 | 0.262 | 1 | 0.569 | 0.218 | 0.265 | 0.648 | 0.359 | 0.415 | 0.93 | 0.409 | 0.264
7 | NC1(C(=O)N[C@@H](CCO)c2ccc(Cl)cc2)CCN(c2ncnc3[nH]ccc23)CC1 [Capivasertib] + C[C@@H]1COCCN1C2=NC(=NC(=C2)C3(CC3)[S@](=N)(=O)C)C4=C5C=CNC5=NC=C4 [AZD6738] (first compound max 10 µM, 7x7, partner max 10 µM) | -0.0956 | -0.0185 | 0.0152 | -0.0571 | -0.0379 | -0.0518 | -0.0673 | 0.477 | 0.566 | 0.787 | 0.99 | 0.778 | 0.67 | 0.845 | 0.948 | 0.645 | 0.635 | 0.774 | 0.676 | 0.386
8 | COc1cccc(OCCCN)c1-c1cc(Nc2cnc(C#N)cn2)n[nH]1 [Prexasertib] + CCc1c2c(nc3ccc(O)cc13)-c1cc3c(c(=O)n1C2)COC(=O)[C@]3(O)CC [SN-38] (first compound max 1 µM, 7x7, partner max 0.3 µM) | -0.0513 | 0.023 | -0.0767 | -0.0496 | -0.058 | 0.0222 | 0.0461 | 0.626 | 0.769 | 0.897 | 1 | 0.982 | 0.84 | 0.957 | 0.94 | 0.855 | 0.985 | 0.787 | 0.904 | 0.695
9 | CC1(C)CCC(CN2CCN(c3ccc(C(=O)NS(=O)(=O)c4ccc(NCC5CCOCC5)c([N+](=O)[O-])c4)c(Oc4cnc5[nH]ccc5c4)c3)CC2)=C(c2ccc(Cl)cc2)C1 [Venetoclax] + Cc1cc2ncnn2cc1Nc1ncc2c(n1)n(C1CCOCC1)c(=O)n2C [AZD7648] (first compound max 1 µM, 7x7, partner max 10 µM) | 0.0904 | -0.0675 | -0.0596 | -0.0215 | -0.0442 | -0.018 | 0.0065 | 0.103 | 0.179 | 0.26 | 0.282 | 0.133 | 0.0496 | 0.317 | 0.434 | 0.166 | 0.0987 | 0.216 | 0.217 | 0.297
10 | Cn1cnc2c(F)c(Nc3ccc(Br)cc3Cl)c(C(=O)NOCCO)cc21 [Selumetinib] + C=CCn1c(=O)c2cnc(Nc3ccc(N4CCN(C)CC4)cc3)nc2n1-c1cccc(C(C)(C)O)n1 [AZD1775] (first compound max 10 µM, partner max 1 µM) | -0.0549 | -0.0272 | -0.0711 | -0.0211 | -0.0119 | -0.0305 | -0.0209 | 0.395 | 0.702 | 0.671 | 0.894 | 0.912 | 0.0949 | 0.634 | 0.928 | 0.629 | 0.619 | 0.944 | 0.605 | 0.406
11 | CC1(C)CCC(CN2CCN(c3ccc(C(=O)NS(=O)(=O)c4ccc(NCC5CCOCC5)c([N+](=O)[O-])c4)c(Oc4cnc5[nH]ccc5c4)c3)CC2)=C(c2ccc(Cl)cc2)C1 [Venetoclax] + Cn1cnc2c(F)c(Nc3ccc(Br)cc3Cl)c(C(=O)NOCCO)cc21 [Selumetinib] (first compound max 1 µM, 7x7, partner max 3 µM) | -0.0092 | -0.0386 | -0.0324 | -0.0299 | -0.0679 | -0.0252 | -0.0104 | 0.373 | 0.109 | 0.145 | 0.221 | 0.313 | 0.213 | 0.257 | 0.236 | 0.316 | 0.137 | 0.918 | 0.133 | 0.228
12 | COc1nnc2ccc(N3CCC(c4ccc(OCCN5CCN(C)C(=O)[C@H]5C)cc4)CC3)nn12 [AZD5153] + Cc1c2c(nn1C)CSCc1cc(n(C)n1)CSc1cc(c3ccccc3c1)OCCCc1c(C(=O)O)n(C)c3c-2c(Cl)ccc13 [AZD5991] (first compound max 1 µM, 7x7, partner max 1 µM) | 0.0454 | 0.0098 | -0.0589 | -0.0297 | -0.0096 | 0.0105 | 0.0144 | 0.36 | 0.925 | 0.985 | 1 | 0.789 | 0.68 | 0.876 | 0.919 | 0.534 | 0.875 | 0.581 | 0.713 | 0.423
13 | CC(=O)c1c(C)c2cnc(Nc3ccc(N4CCNCC4)cn3)nc2n(C2CCCC2)c1=O [Palbociclib] + CC1(C)CCC(CN2CCN(c3ccc(C(=O)NS(=O)(=O)c4ccc(NCC5CCOCC5)c([N+](=O)[O-])c4)c(Oc4cnc5[nH]ccc5c4)c3)CC2)=C(c2ccc(Cl)cc2)C1 [Venetoclax] (first compound max 10 µM, 7x7, partner max 1 µM) | -0.0425 | -0.0377 | 0.0004 | -0.0575 | -0.0317 | -0.102 | 0.0238 | 0.0998 | 0.0618 | 0.172 | 0.7 | 0.142 | 0.0985 | 0.705 | 0.802 | 0.187 | 0.191 | 0 | 0.233 | 0.0783
